# Laboratory results reported in patent publication US20120220603A1, “SUBSTITUTED HETEROCYCLIC DERIVATIVES FOR THE TREATMENT OF PAIN AND EPILEPSY” (ZALICUS PHARMACEUTICALS LTD., priority 2009, published 2012).
# Tests used:
# [1] = tested on: Lamina I/II spinal cord neurons; test: Lamina assay: current-clamp recordings on lamina I/II spinal cord neurons; type: cell-based, rat; settings: Lamina I and II; for % Spike Change (Mean; % change from control): tonic firing neurons, current-clamp
# Description: Male Wistar rats (P6 to P9 for voltage-clamp and P15 to P18 for current-clamp recordings) were anaesthetized through intraperitoneal injection of Inactin (Sigma). The spinal cord was then rapidly dissected out and placed in an ice-cold solution protective sucrose solution containing (in mM): 50 sucrose, 92 NaCl, 15 D-Glucose, 26 NaHCO3, 5 KCl, 1.25 NaH2PO4, 0.5 CaCl2, 7 MgSO4, 1 kynurenic acid, and bubbled with 5% CO2/95% O2. The meninges, dura, and dorsal and ventral roots were then removed from the lumbar region of the spinal cord under a dissecting microscope. The “cleaned” lumbar region of the spinal cord was glued to the vibratome stage and immediately immersed in ice cold, bubbled, sucrose solution. For current-clamp recordings, 300 to 350 μm parasagittal slices were cut to preserve the dendritic arbour of lamina I neurons, while 350 to 400 μm transverse slices were prepared for voltage-clamped […] channel recordings. Slices were allowed to recover for 1 hour at 35° C. in Ringer solution containing (in mM): 125 NaCl, 20 D-Glucose, 26 NaHCO3, 3 KCl, 1.25 NaH2PO4, 2 CaCl2, 1 MgCl2, 1 kynurenic acid, 0.1 picrotoxin, bubbled with 5% CO2/95% O2. The slice recovery chamber was then returned to room temperature (20 to 22° C.) and all recordings were performed at this temperature.
# Neurons were visualized using IR-DIC optics (Zeiss Axioskop 2 FS plus, Gottingen, Germany), and neurons from lamina I and the outer layer of lamina II were selected based on their location relative to the substantia gelatinosa layer. Neurons were patch-clamped using borosilicate glass patch pipettes with resistances of 3 to 6 MΩ. Current-clamp recordings of lamina I/II neurons in the intact slice, the external recording solution was the above Ringer solution, while the internal patch pipette solution contained (in mM): 140 KGluconate, 4 NaCl, 10 HEPES, 1 EGTA, 0.5 MgCl2, 4 MgATP, 0.5 Na2GTP, adjusted to pH 7.2 with 5 M KOH and to 290 mOsm with D-Mannitol (if necessary). Only tonic firing neurons were selected for current-clamp experiments, while phasic, delayed onset and single spike neurons were discarded (22). Recordings were digitized at 50 kHz and low-pass filtered at 2.4 kHz.
# [2] = tested on: seizures induced by 6 Hz corneal stimulation in CF1 mice; test: 6 Hz psychomotor seizure model of partial epilepsy; type: in vivo, mouse; design: Epilepsy 6 Hz (% protected): concentration or dose not given beside the values; settings: 32 mA; for ED50: Mus musculus
# Procedure: Compounds were evaluated for the protection against seizures induced by a 6 Hz, 0.2 ms rectangular pulse width of 3 s duration, at a stimulus intensity of 32 mA (CC97) applied to the cornea of male CF1 mice (20-30 g) according to procedures described by Barton et al, “Pharmacological Characterization of the 6 Hz Psychomotor Seizure Model of Partial Epilepsy,” Epilepsy Res. 47(3):217-27 (2001). Seizures are characterised by the expression of one or more of the following behaviours: stun, forelimb clonus, twitching of the vibrissae and Straub-tail immediately following electrical stimulation.
# [3] = Mouse rotarod assay (minimal muscular or neurological impairment); type: in vivo; settings: mouse, in vivo, mice
# Procedure: To assess a compound's undesirable side effects (toxicity), animals were monitored for overt signs of impaired neurological or muscular function. In mice, the rotarod procedure (Dunham and Miya, J. Am. Pharmacol. Assoc. 46:208-209 (1957)) is used to disclose minimal muscular or neurological impairment (MMI). When a mouse is placed on a rod that rotates at a speed of 6 rpm, the animal can maintain its equilibrium for long periods of time. The animal is considered toxic if it falls off this rotating rod three times during a 1-min period.
# [4] = molecular target: T1, CaV3.2 T-type Ca2+ channels expressed in HEK cells (Homo sapiens, UniProt O95180); test: CaV3.2 voltage-clamp electrophysiological assay (fast and slow inactivation); type: cell-based
# T1 construct: expressed in transfected cells; host or cells: HEK cells
# Description: Prior to recording currents from CaV3.2 T-type Ca^2+ channels expressed in HEK cells, the culture media was replaced with extracellular solution (ECS) containing (in mM): 142 CsCl, 10 D-glucose, 2 CaCl2, 1 MgCl2, 10 HEPES, pH adjusted to 7.4 with CsOH. Borosilicate glass patch pipettes, pulled on a P-97 micropipette puller (Sutter Instruments, Novato, Calif.) with typical resistances of 2-4 MW, were backfilled with intracellular solution containing (in mM): 126.5 Cs-methanesulphonate, 2 MgCl2, 10 HEPES, 11 EGTA, 2 Na-ATP, pH adjusted to 7.3 CsOH. […] were recorded in the whole-cell configuration at room temperature (˜21° C.) using an Axopatch 200B (Molecular Devices, Sunnyvale, Calif.) patch-clamp amplifier. Recordings were low-pass filtered at 1 kHz (−3 dB 4-pole Bessel filter), digitized at 2 kHz with a Digidata 1322A interface (Molecular Devices), and acquired using pClamp 9.2 (Molecular Devices). No leak subtraction was used. Test compounds, prepared as 30 mM stock solutions in DMSO and diluted in extracellular buffer, were applied through a gravity driven multi-barrelled array of capillaries (24 gauge) connected to reservoirs controlled by solenoid valves. The effects of compounds on CaV3.2 slow and fast inactivation were evaluated using four different voltage protocols. The voltage dependence of fast and slow channel inactivation was examined using a two pulse protocol. Data were analyzed and fitted using OriginPro v.7.5 (OriginLab, Northampton, Mass.) software.
# T1 sequence (O95180 whole entry): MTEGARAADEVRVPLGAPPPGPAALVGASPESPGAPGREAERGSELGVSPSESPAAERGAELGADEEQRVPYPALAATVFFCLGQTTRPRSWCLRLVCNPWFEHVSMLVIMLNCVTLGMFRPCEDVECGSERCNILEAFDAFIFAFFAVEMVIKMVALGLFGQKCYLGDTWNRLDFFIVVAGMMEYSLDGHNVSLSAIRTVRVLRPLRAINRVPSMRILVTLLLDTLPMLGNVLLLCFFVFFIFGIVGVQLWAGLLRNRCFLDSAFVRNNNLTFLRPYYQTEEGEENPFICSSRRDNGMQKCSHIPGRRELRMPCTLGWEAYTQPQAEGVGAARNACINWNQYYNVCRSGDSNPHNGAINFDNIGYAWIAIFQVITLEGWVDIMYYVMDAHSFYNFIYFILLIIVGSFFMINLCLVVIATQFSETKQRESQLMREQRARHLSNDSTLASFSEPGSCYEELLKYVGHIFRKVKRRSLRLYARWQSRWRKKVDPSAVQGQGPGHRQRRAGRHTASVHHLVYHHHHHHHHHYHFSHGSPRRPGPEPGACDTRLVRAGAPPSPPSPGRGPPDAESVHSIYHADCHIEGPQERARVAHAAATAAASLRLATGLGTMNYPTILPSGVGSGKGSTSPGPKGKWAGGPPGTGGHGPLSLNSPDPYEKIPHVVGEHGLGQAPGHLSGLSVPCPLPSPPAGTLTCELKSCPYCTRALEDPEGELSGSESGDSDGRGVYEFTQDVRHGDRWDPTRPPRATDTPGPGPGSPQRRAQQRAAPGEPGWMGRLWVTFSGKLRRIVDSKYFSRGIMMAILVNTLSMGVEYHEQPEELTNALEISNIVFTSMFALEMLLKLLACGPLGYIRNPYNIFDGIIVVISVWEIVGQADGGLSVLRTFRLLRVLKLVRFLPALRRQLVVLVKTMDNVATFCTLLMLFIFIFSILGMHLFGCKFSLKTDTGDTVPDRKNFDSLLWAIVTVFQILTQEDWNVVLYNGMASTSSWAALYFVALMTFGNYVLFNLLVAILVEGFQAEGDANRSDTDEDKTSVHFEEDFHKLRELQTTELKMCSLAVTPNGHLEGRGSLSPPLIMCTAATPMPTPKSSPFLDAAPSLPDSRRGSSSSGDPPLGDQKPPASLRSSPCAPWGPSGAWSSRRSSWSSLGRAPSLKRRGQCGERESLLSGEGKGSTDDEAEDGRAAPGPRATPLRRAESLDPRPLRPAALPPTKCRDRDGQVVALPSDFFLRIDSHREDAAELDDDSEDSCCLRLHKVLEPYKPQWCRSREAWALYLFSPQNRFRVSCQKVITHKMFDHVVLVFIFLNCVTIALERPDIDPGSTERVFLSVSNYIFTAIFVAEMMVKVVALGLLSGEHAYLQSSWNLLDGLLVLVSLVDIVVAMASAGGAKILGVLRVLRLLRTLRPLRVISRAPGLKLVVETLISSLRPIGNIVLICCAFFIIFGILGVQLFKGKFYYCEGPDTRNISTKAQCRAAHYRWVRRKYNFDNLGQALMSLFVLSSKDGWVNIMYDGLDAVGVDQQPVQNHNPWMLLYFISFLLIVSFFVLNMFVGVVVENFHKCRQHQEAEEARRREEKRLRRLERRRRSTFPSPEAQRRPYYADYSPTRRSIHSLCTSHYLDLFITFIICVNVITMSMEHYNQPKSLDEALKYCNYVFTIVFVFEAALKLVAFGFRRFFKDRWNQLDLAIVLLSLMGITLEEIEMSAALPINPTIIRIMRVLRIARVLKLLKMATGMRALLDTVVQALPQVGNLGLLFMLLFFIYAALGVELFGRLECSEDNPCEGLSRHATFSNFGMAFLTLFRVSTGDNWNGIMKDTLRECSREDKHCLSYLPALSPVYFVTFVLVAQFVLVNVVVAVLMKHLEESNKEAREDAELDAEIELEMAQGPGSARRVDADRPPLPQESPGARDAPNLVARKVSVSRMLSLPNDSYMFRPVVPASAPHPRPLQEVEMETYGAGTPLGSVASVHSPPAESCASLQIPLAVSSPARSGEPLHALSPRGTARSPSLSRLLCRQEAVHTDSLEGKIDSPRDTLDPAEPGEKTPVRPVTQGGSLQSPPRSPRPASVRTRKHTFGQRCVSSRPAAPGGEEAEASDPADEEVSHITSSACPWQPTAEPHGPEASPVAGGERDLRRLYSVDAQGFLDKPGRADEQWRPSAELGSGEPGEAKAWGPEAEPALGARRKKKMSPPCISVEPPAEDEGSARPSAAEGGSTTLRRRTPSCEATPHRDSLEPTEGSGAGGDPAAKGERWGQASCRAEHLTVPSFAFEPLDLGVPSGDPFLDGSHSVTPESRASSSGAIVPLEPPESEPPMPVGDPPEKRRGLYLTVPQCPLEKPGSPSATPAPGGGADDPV
SMILES,% Spike Change (Mean; % change from control) [1] [%],"EC50 ([1]; Rattus norvegicus, Neuron) [nM]",Epilepsy 6 Hz (% protected) ([2]; 0.25 hr) [%],Epilepsy 6 Hz (% protected) ([2]; 0.5 hr) [%],Epilepsy 6 Hz (% protected) ([2]; 1 hr) [%],ED50 [2] [mg/kg],TD50 [3] [mg/kg],Fraction of current recovered at 5.1 s interval ([4]; 5.1 s interval),Fraction current remaining at −40 mV ([4]; at −40 mV),"V1/2 slow inactivation ([4]; voltage-dependence of half inactivation, HEK cells, whole-cell)",Epilepsy 6 Hz (% protected) ([2]; 2 hr) [%],Epilepsy 6 Hz (% protected) ([2]; 4 hr) [%]
"O=C(CN1CCNCC1=O)Nc1cc(C(F)(F)F)cc(C(F)(F)F)c1 [Compound 1, N-(3,5-bis(trifluoromethyl)phenyl)-2-(2-oxopiperazin-1-yl)acetamide]",−47.3,482,75,100,75,128,300,–,–,–,–,–
"O=C1CN(CC(=O)Nc2cc(C(F)(F)F)cc(C(F)(F)F)c2)CCN1 [Compound 9, N-(3,5-bis(trifluoromethyl)phenyl)-2-(3-oxopiperazin-1-yl)acetamide]",−35.5,–,75,25,88,90,–,*0.80,**0.32,**−83 mV,75,0
